Reference: PubChem BioAssay AID2060490 (Molecular Pharmacology Branch, DTP, NCI, 2025)

Tested on: 885512-296-R-J2-PDC complex spheroid viability
Assay: Anticancer human tumor 885512-296-R-J2-PDC patient-derived breast carcinoma cell line growth inhibition [GQUAD]
Conditions: for IC50: curve of first compound; for viability, T/C: stronger effect = lower value
Method in brief: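 Viability of tumor cells grown as complex spheroids with endothelial and stromal cells, exposed to drug combinations. Top concentration at or near clinical Cmax (else 10 microM), diluted in half-log increments.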
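Further: spheroids exposed to the compounds for one week.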
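Wherever viability, T/C is given: percent of tumor spheroid viability relative to DMSO vehicle control wells.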

Cc1[nH]c2ccccc2c1CCNCc1ccc(/C=C/C(=O)NO)cc1 + Cc1[nH]c2ccc(F)cc2c1-c1nc2c3cccnc3c3ncccc3c2[nH]1
IC50 (second compound 0.0316 µM): > 0.316 µM | IC50 (second compound 0.1 µM): > 0.316 µM | IC50 (second compound 0.316 µM): > 0.316 µM | IC50 (second compound 1 µM): > 0.316 µM | IC50 (second compound 3.16 µM): < 0.000999 µM | IC50 (second compound 10 µM): < 0.000999 µM | viability, T/C (second compound 0.0316 µM, first compound 0.000999 µM): 99.3% | viability, T/C (second compound 0.0316 µM, first compound 0.00316 µM): 114% | viability, T/C (second compound 0.0316 µM, first compound 0.00999 µM): 97.1% | viability, T/C (second compound 0.0316 µM, first compound 0.0316 µM): 94.9% | viability, T/C (second compound 0.0316 µM, first compound 0.0999 µM): 100% | viability, T/C (second compound 0.0316 µM, first compound 0.316 µM): 78.2% | viability, T/C (second compound 0.1 µM, first compound 0.000999 µM): 99.7% | viability, T/C (second compound 0.1 µM, first compound 0.00316 µM): 97.1% | viability, T/C (second compound 0.1 µM, first compound 0.00999 µM): 94.7% | viability, T/C (second compound 0.1 µM, first compound 0.0316 µM): 92.1% | viability, T/C (second compound 0.1 µM, first compound 0.0999 µM): 103% | viability, T/C (second compound 0.1 µM, first compound 0.316 µM): 82.4% | viability, T/C (second compound 0.316 µM, first compound 0.000999 µM): 92.5% | viability, T/C (second compound 0.316 µM, first compound 0.00316 µM): 88.4% | viability, T/C (second compound 0.316 µM, first compound 0.00999 µM): 90.2% | viability, T/C (second compound 0.316 µM, first compound 0.0316 µM): 87.3% | viability, T/C (second compound 0.316 µM, first compound 0.0999 µM): 85.7% | viability, T/C (second compound 0.316 µM, first compound 0.316 µM): 69.5% | viability, T/C (second compound 1 µM, first compound 0.000999 µM): 75.9% | viability, T/C (second compound 1 µM, first compound 0.00316 µM): 53.9% | viability, T/C (second compound 1 µM, first compound 0.00999 µM): 62.3% | viability, T/C (second compound 1 µM, first compound 0.0316 µM): 65.9% | viability, T/C (second compound 1 µM, first compound 0.0999 µM): 53.7% | viability, T/C (second compound 1 µM, first compound 0.316 µM): 56.4% | viability, T/C (second compound 3.16 µM, first compound 0.000999 µM): 5.78% | viability, T/C (second compound 3.16 µM, first compound 0.00316 µM): 9.7% | viability, T/C (second compound 3.16 µM, first compound 0.00999 µM): 7.26% | viability, T/C (second compound 3.16 µM, first compound 0.0316 µM): 6.61% | viability, T/C (second compound 3.16 µM, first compound 0.0999 µM): 5.06% | viability, T/C (second compound 3.16 µM, first compound 0.316 µM): 4.88% | viability, T/C (second compound 10 µM, first compound 0.000999 µM): 1.15% | viability, T/C (second compound 10 µM, first compound 0.00316 µM): 1.37% | viability, T/C (second compound 10 µM, first compound 0.00999 µM): 1.33% | viability, T/C (second compound 10 µM, first compound 0.0316 µM): 2.33% | viability, T/C (second compound 10 µM, first compound 0.0999 µM): 1.05% | viability, T/C (second compound 10 µM, first compound 0.316 µM): 1.69%
